Measurements: patent US20250009769A1, “USE OF LYSOPHOSPHATIDIC ACID (LPA) IN CONTROLLING PORCINE INFECTIOUS DIARRHEA” (SICHUAN AGRICULTURAL UNIVERSITY, priority 2023, published 2025)
Marks after values point to notes of the source that are not given here.

Assays:
[1] = tested on: ETEC; assay: Intestinal tissue morphology of piglets infected with ETEC, dietary 0.3% LPA (Example 1); assay type: in vivo, DLY weaned piglets; conditions: for Duodenum V/C ratio / Ileum V/C ratio / Jejunum V/C ratio: villus height/crypt depth
Experimental: (§1) 25-day-old DLY weaned piglets were selected, with an average weight of (7.24±0.07) kg.
(§2) In the experiment, 32 piglets were divided into 4 groups with 8 replicates in each group, and the experimental period was 21 d. […] Slaughtering and sampling were conducted on the morning of day 21 of the experiment.
ETEC challenge reduced villus height and V/C in the duodenum and ileum (P<0.05), and increased crypt depth in the ileum (P<0.05). […] Furthermore, the LPA reduced the crypt depth and increased the villus height/crypt depth (V/C) ratio in the ileum of ETEC-challenged piglets (P<0.05).

[2] = tested on: ETEC; assay: Diarrhea rate caused by Escherichia coli in weaned piglets, dietary 0.2% LPA (Example 2); assay type: in vivo, DLY weaned piglets; conditions: ETEC + LPA group: 0.2% LPA in diet
Experimental: 21-day-old DLY weaned piglets were selected, with an average weight of (6.23±0.82) kg.
In the experiment, 24 piglets were divided into 3 groups, each group had 8 replicates, and the experimental period was 21 d. […] Slaughtering and sampling were conducted on the morning of day 21 of the experiment.

[3] = tested on: ETEC; assay: Intestinal permeability of piglets infected with ETEC, dietary 0.3% LPA (Example 1); assay type: in vivo, DLY weaned piglets
Experimental: as §1, §2

[4] = set-up: species or system DLY weaned piglets; conditions: in vivo
Experimental: as §1, §2

[5] = tested on: ETEC; assay: Diarrhea rate and diarrhea index of weaned piglets after ETEC challenge, dietary 0.3% LPA (Example 1); assay type: in vivo, DLY weaned piglets
Experimental: as §1, §2

[6] = LPA + ETEC group: 0.3% LPA, ETEC challenge
[7] = LPA + ETEC group: diet with 0.3% LPA, ETEC challenge on day 18
[8] = LPA group: diet with 0.3% LPA, saline instead of ETEC

CCCCCCCC/C=C\CCCCCCCC(=O)OC[C@@H](O)COP(=O)([O-])[O-].[Na+].[Na+] [LPA, 1-oleoyl-sn-glycerol 3-phosphate sodium salt]
Duodenum crypt depth [1, 6]: 273.45 ± 9.78 ^ μm | Duodenum villus height [1, 6]: 452.55 ± 11.68^b μm | Ileum crypt depth [1, 6]: 170.08 ± 4.12^b μm | Ileum villus height [1, 6]: 378.37 ± 13.76^a μm | Jejunum crypt depth [1, 6]: 177.98 ± 6.30 ^ μm | Jejunum villus height [1, 6]: 360.56 ± 10.87 ^ μm | Duodenum V/C ratio [1, 6]: 1.65 ± 1.19^b | Ileum V/C ratio [1, 6]: 2.22 ± 3.34^b | Jejunum V/C ratio [1, 6]: 2.02 ± 1.73^ | Duodenum crypt depth ([1]; LPA group: 0.3% LPA, no ETEC): 270.03 ± 8.13 μm | Duodenum villus height ([1]; LPA group: 0.3% LPA, no ETEC): 493.34 ± 12.43^a μm | Ileum crypt depth ([1]; LPA group: 0.3% LPA, no ETEC): 150.45 ± 4.89^b μm | Ileum villus height ([1]; LPA group: 0.3% LPA, no ETEC): 401.46 ± 13.45^a μm | Jejunum crypt depth ([1]; LPA group: 0.3% LPA, no ETEC): 160.98 ± 3.23 μm | Jejunum villus height ([1]; LPA group: 0.3% LPA, no ETEC): 377.28 ± 9.89 μm | Duodenum V/C ratio ([1]; LPA group: 0.3% LPA, no ETEC): 1.83 ± 1.53^a | Ileum V/C ratio ([1]; LPA group: 0.3% LPA, no ETEC): 2.67 ± 2.75^a | Jejunum V/C ratio ([1]; LPA group: 0.3% LPA, no ETEC): 2.34 ± 3.06 | Diarrhea index ([2]; after challenge): 1.98^b | Diarrhea rate ([2]; after challenge): 33.56 ± 0.28^b % | Diarrhea index ([2]; before challenge): 1.68 | Diarrhea rate ([2]; before challenge): 11.86 ± 0.15^b % | D-lactic acid [3, 6]: 1.53 ± 0.93^b mg/L | DAO [3, 6]: 335.62 ± 14.23^b pg/mL | Fluid accumulation rate [3, 6]: 1.42 ± 0.68^b | LPS [3, 6]: 49.13 ± 2.56^b ng/L | D-lactic acid ([3]; LPA group: 0.3% LPA, no ETEC): 1.69 ± 0.22^b mg/L | DAO ([3]; LPA group: 0.3% LPA, no ETEC): 330.43 ± 12.78^b pg/mL | Fluid accumulation rate ([3]; LPA group: 0.3% LPA, no ETEC): 1.32 ± 1.21^b | LPS ([3]; LPA group: 0.3% LPA, no ETEC): 48.23 ± 5.23^b ng/L | Impact on piglet growth performance [4]: no significant negative impact on piglet growth performance | Diarrhea index [5, 7]: 0.75 ± 0.56^b | Diarrhea rate [5, 7]: 37.50 ± 27.99^b % | Diarrhea index [5, 8]: 0.00 ± 0.00^c | Diarrhea rate [5, 8]: 0.00 ± 0.00^c %
